# Patent publication US20250241890A1, “1,4-DIUREAS AND 1,4-DITHIOUREAS AND USES THEREOF” (Purdue Research Foundation, priority 2024, published 2025)
# Assays:
# [1] = test system: neuroblastoma cells (SH-SY5Y); test: Crystal violet staining cytotoxicity; assay type: cell-based, human; conditions: four days
# Procedure: The cytotoxicity of compounds 1 and 2 was assessed using human neuroblastoma cells (SH-SY5Y). Employing the crystal violet staining method, determination of the optical density was used to reflect on the percentage of cells attached to each well (6-well plate format) after treatment with control DMSO (0.14) and compound concentrations at 5 and 10 μM. Treated cells were incubated at 37° C. with 5% CO2 for four days. […] Compound 2 was also non cytotoxic at higher concentration, i.e., 10 μM. Differences were not statistically significant at […] via one-way analysis of variance ANOVA with post-test (Dunnett's multiple comparison test).
# α-synuclein (α-syn) = biological target: T1, α-synuclein (α-syn) (Homo sapiens, UniProt P37840); test: PICUP assay of α-syn oligomer formation; assay type: biochemical; conditions: α-syn 60 μM, compound 50 μM (~molar ratio 1:1)
# T1 construct: purchased rPeptide (Watkinsville, GA)
# Procedure: Chemical and peptide source. Dimethylsulfoxide (DMSO) and thioflavin-T (ThT) were purchased from Alfa Aesar (Ward Hill, MA). Recombinant α-synuclein (α-syn) was procured from rPeptide (WatKinsville, GA). The recombinant p-tau isoform 1N4R was prepared as published previously (Fortin et al. 2021, Sui et al. 2015, Liu et al. 2020). Concerning the preparation of tau 0N4R, a bacterial expression plasmid consisting of the vector pET30a carrying a cDNA encoding the human Tau 0N4R isoform was a kind gift of Dr. Benjamin Wolozin (Boston University). E. coli stock (Rosetta BL21 E. coli (CamR) containing pET30a [0N4R tau wt] (KanR)) was grown in LB medium supplemented with kanamycin (50 μg/mL) and chloramphenicol (50 μg/mL). Protein over-expression was induced by the addition of 1 mM IPTG for ˜18 hours at 37° C., and cells were pelleted by centrifugation at 6,000 g for 15 minutes at 4° C. The cells were resuspended in lysis buffer (10 mM Hepes, pH 7.4, 50 mM NaCl, 1 mM MgCl2, 1 mM PMSF, 1× PIC, and 0.5 mM DTT) and lysed by sonication at 30 seconds “On” and 1 minute “Off” at ˜30-45% power for ˜3-5 minutes. Lysate was centrifuged at 10,000 rpm for 10 minutes at 4° C., and supernatant was transferred with 7.8 ml (total) of 3M NaCl. The lysate was incubated for 10 minutes in 80° C. water bath, then cooled for 10 minutes in an ice bath. The lysate was centrifuged at 10,000 rpm at 4° C. for 10 minutes, and the supernatant was transferred to a new tube. The supernatant was dialyzed overnight against cation exchange buffer (50 mM MES, […], 1 mM DTT, pH 6.0). The dialysate was loaded onto a HiPrep SP HP column, and proteins were eluted with a linear gradient ranging from 50 mM to 1 M NaCl. General Characterizations. ^1H and ^13C {1H} NMR spectra were recorded using a 500 MHz Bruker instrument working at a frequency of 500 MHz for ^1H and at 126 MHz for ^13C. Chemical shifts are reported in ppm using residual solvent resonances as internal reference (δ 2.50 and δ 39.51 for ^1H and ^13C in DMSO-d6, respectively). ^1H NMR data are reported as follows. b=broad, s=singlet, d=doublet, t=triplet, q=quartet, and m=multiplet. Coupling constants are given in hertz. The purity of all compounds and synthetic intermediates was judged to be 95% or better based on ^1H NMR. IR measurements were performed in a Nicolet FTIR as thin films in the Purdue Drug Discovery facility. High-resolution mass spectrometry analyses were conducted at the MSU Mass Spectrometry facility. Thioflavin fluorescence assays. Thioflavin fluorescence assays were used to monitor fibril formation of commercial recombinant α-syn at a final concentration of 2 μM and treated with control DMSO and different compounds. The recombinant α-syn obtained from rPeptide has been validated with proper quality control to confirm the monomeric state of the protein. Kinetics of fibril formation have been performed using ThT as published previously.^6, 12, 13, 24 The fluorescence emission experiments were performed with the excitation and emission wavelengths set at 440 and 485 nm, respectively, with a Synergy HT multi-mode microplate reader (BioTek, Winooski, VT). Samples were measured in three replicates. Experiments were repeated three times using different α-syn stock solutions. For each time point, arbitrary units of fluorescence were calculated from the mean values normalized against the maximum value. The percentage of fluorescence intensity at the plateau phase in Table 1 was expressed as mean #SEM. Concerning the dose response curve depicted in FIG. 2, the data were plotted using GraphPad Prism. Photo-induced Cross-linking of Unmodified Proteins (PICUP) Assay. […] Different compounds were added to the protein solution at a final concentration of 50 μM, resulting in a molar ratio of 1:1. PICUP assays were performed with the following controls: samples without light exposition, without Ru(bpy) or ammonium persulfate, and without compound (i.e., 0.125% DMSO). […]
# [2] = test system: neuroblastoma cells (SH-SY5Y); test: MTT cytotoxicity; assay type: cell-based, human; conditions: for cell survival, MTT, difference to DMSO control: 20 μM, 48 hours; for cytotoxicity, MTT: 5 or 10 μM, 24 hours
# Procedure: MTT (3-(4,5-Dimethylthiazol-2-yl)-2,5-diphenyltetrazolium bromide) is a tetrazolium salt that is commonly used to detect reductive metabolism in cells for viability, proliferation and cytotoxicity assays. MTT was utilized in order to evaluate metabolic cellular toxicity of compounds 1, 2, and DMSO (vehicle) using human neuroblastoma cells (SH-SY5Y). Cells were diluted in cellular media in order to obtain ˜500,000 cells per condition and grown for 8-12 hours prior treatment. Cellular media (see the material and method section below) was then removed. The cells were then treated with compounds 1 or 2 at 20 μM or DMSO control at 0.05% (FIG. 9) diluted in cellular media followed by an additional incubation of 48 hours. Cellular media was removed, and the cells were treated with 50% MTT in cellular media for 2 hours at 37° C. followed by detergent solution. Differences were considered non-significant (at p<0.05) (FIG. 9) based on the one-way analysis of variance (ANOVA) without post-test performed with GraphPad Prism (version 5).
# MTT assay was performed once again with compounds 1 and 2 and DMSO control at 5 and 10 μM. Each well contained ˜500,000 cells (6-well plate) prepared 8-12 hours prior to treatment. The cells were treated for 24 hours, and then MTT method was applied to assess cell survival. […] No differences were detected at p<0.001 using the one-way analysis of variance (ANOVA) with Dunnett's multiple comparison test.
SMILES,"cytotoxicity, crystal violet staining ([1]; 5 μM)","percentage of oligomer reduction (PICUP, relative pixel density) (α-synuclein (α-syn)) [%]","cell survival, MTT, difference to DMSO control [2]","cytotoxicity, MTT [2]","cytotoxicity, crystal violet staining ([1]; 10 μM)",effect on α-syn oligomer formation (high molecular weight bands) by PICUP (α-synuclein (α-syn))
"O=C(Nc1ccc(NC(=O)Nc2cccc3[nH]ccc23)cc1)Nc1cccc2[nH]ccc12 [Compound 1, 3-(1H-indol-4-yl)-1-(4-{[(1H-indol-4-yl)carbamoyl]amino}phenyl)urea]",non cytotoxic,52.6,non-significant,did not induce cytotoxicity,,
"S=C(Nc1ccc(NC(=S)Nc2cccc3[nH]ccc23)cc1)Nc1cccc2[nH]ccc12 [Compound 2, 3-(1H-indol-4-yl)-1-(4-{[(1H-indol-4-yl)carbamothioyl]amino}phenyl)thiourea]",non cytotoxic,84.2,non-significant,did not induce cytotoxicity,non cytotoxic,reduced α-syn oligomer formation
"S=C(Nc1ccc(NC(=S)Nc2cccc3cc[nH]c23)cc1)Nc1cccc2cc[nH]c12 [Compound 8, 3-(1H-indol-7-yl)-1-(4-{[(1H-indol-7-yl)carbamothioyl]amino}phenyl)thiourea]",,91.2,,,,reduced α-syn oligomer formation
